The values below come from DBAASP.

Among the test systems are Methylobacterium sp.; Xanthomonas citri; Enterococcus gallinarum; Staphylococcus aureus; Enterococcus faecium; Vibrio cholerae; Escherichia coli MG1655; Cladosporium herbarum; Alternaria alternata; Botrytis cinerea; Escherichia coli SPE 001.
Common to all, as to assay: ≥ marks a high value that may be exact or a test limit, other limits are often not marked, values filed in µg/mL are converted to µM
The subject of experiment [1] is Sinorhizobium meliloti USDA 1002.
Experiment [2] relates to Enterococcus casseliflavus.
In experiment [3] the test system is Salmonella typhimurium KCTC 2370.
Experiment [4] has as its system Escherichia coli ATCC 27325.
Experiment [5] deals with Enterococcus faecalis ATCC 29212.
Experiment [6] concerns Saccharomyces cerevisiae ATCC 44774.
The subject of experiment [7] is Bacillus subtilis KCTC 3038.
Experiment [8] concerns Pseudomonas aeruginosa DSM 1128.
Experiment [9] relates to Streptococcus pneumoniae DSM 11865.
For experiment [10], the system named is Klebsiella pneumoniae DSM 681.
The subject of experiment [11] is Staphylococcus aureus ATCC 25923.
In experiment [12] the test system is Escherichia coli DSM 1103.
The test system of experiment [13] is Staphylococcus aureus MTCC 9542.
The subject of experiment [14] is Bacillus subtilis MTCC 14416.
For experiment [15], the system named is Staphylococcus aureus ATCC 43300.
Experiment [16] concerns Pseudomonas syringae pv. tomato DC3000.
In experiment [17] the test system is Staphylococcus aureus 90857.
Experiment [18] has as its system Pseudomonas corrugata DSM 7228.
The subject of experiment [19] is Pectobacterium carotovorum subsp. carotovorum DSM 30168.
Experiment [20] concerns Clavibacter michiganensis subsp. michiganensis DSM 46294.
Experiment [21] deals with Pseudomonas syringae pv. syringae DSM 10604.
Experiment [22] relates to Xanthomonas vesicatoria DSM 50861.
Experiment [23] concerns Staphylococcus aureus SPM 101.

In general, MIC refers to the lowest concentration found to suppress growth. Read a high MIC as a less susceptible organism.

Values after ≈ are worked out from the molar mass of the structure shown. Values joined by “and” are separate entries in the source; they are usually repeats but may differ in a detail not shown here. Equal values may be shown once.

`CC[C@H](C)[C@H](NC(=O)[C@H](C)NC(=O)CNC(=O)[C@H](Cc1ccccc1)NC(=O)[C@@H](NC(=O)[C@@H](N)CCCCN)[C@@H](C)CC)C(=O)N[C@@H](Cc1c[nH]c2ccccc12)C(=O)N1CCC[C@H]1C(=O)N[C@@H](CC(C)C)C(=O)N[C@@H](C)C(=O)N[C@@H](CC(C)C)C(=O)NCC(=O)N[C@@H](C)C(=O)N[C@@H](CC(C)C)C(=O)N[C@@H](CCCCN)C(=O)N[C@@H](CC(N)=O)C(=O)N[C@@H](CC(C)C)C(=O)N[C@H](C(=O)N[C@@H](CCCCN)C(=O)O)[C@@H](C)CC` [KIFGAIWPLALGALKNLIK]: the MIC worked out at 4 µM (≈ 8.27 µg/mL) in experiment [1], 4 µM (≈ 8.27 µg/mL) in the experiment on Methylobacterium sp. and 2 µM (≈ 4.13 µg/mL) in the experiment with Xanthomonas citri.

On to `CC(C)[C@H](NC(=O)[C@H](CCCCN)NC(=O)[C@H](CCC(N)=O)NC(=O)[C@H](CCCCN)NC(=O)[C@@H](NC(=O)[C@@H](NC(=O)[C@H](CCC(N)=O)NC(=O)[C@@H](NC(=O)[C@@H](NC(=O)[C@@H]1CCCN1C(=O)[C@H](CCCN=C(N)N)NC(=O)[C@@H](NC(=O)[C@@H](NC(=O)[C@@H](N)CCCN=C(N)N)C(C)C)C(C)C)C(C)C)C(C)C)C(C)C)C(C)C)C(=O)N[C@@H](CCCN=C(N)N)C(=O)O` [RVVRPVVQVVKQKVR], for which the minimal inhibitory concentration (MIC) in the experiment on Enterococcus gallinarum is at least 35.8 µM; in experiment [2], 1.12 µM (≈ 2 µg/mL); in experiment [3], at least 35.8 µM; in experiment [4] it was 17.9 µM and ≥ 35.8 µM; in experiment [5], 4.47 µM (≈ 8 µg/mL); in the experiment with Staphylococcus aureus, over 35.8 µM. The minimum inhibitory concentration (MIC) in experiment [6] amounted to 1.12 µM (≈ 2 µg/mL); in experiment [7] it was 8.94 µM (≈ 16 µg/mL); in the experiment with Enterococcus faecium, 2.23 µM (≈ 4 µg/mL).

On to `CC(C)C[C@H](NC(=O)[C@@H](NC(=O)[C@H](C)NC(=O)[C@H](Cc1c[nH]c2ccccc12)NC(=O)[C@H](CCCN=C(N)N)NC(=O)CNC(=O)CNC(=O)[C@H](CCCN=C(N)N)NC(=O)[C@@H](NC(=O)[C@H](CCCN=C(N)N)NC(=O)[C@H](Cc1c[nH]c2ccccc12)NC(=O)[C@H](Cc1ccc(O)cc1)NC(=O)[C@H](Cc1ccc(O)cc1)NC(=O)[C@H](CCCCN)NC(=O)[C@H](CCC(N)=O)NC(=O)[C@@H](N)CC(C)C)C(C)C)C(C)C)C(=O)N[C@@H](CO)C(=O)O` [LQKYYWRVRGGRWAVLS], for which the minimum inhibitory concentration (MIC) in experiment [8] was at least 140 µM; in [9] it was at least 140 µM; in experiment [10], at least 140 µM; in experiment [11], 70.1 µM (≈ 150 µg/mL); in [12] it was at least 140 µM.

Regarding `CC[C@H](C)[C@H](NC(=O)[C@H](C)NC(=O)[C@H](CS)NC(=O)[C@H](Cc1ccccc1)NC(=O)[C@@H](NC(=O)[C@H](CCCCN)NC(=O)[C@@H]1CCCN1C(=O)[C@H](CC(C)C)NC(=O)[C@H](Cc1ccccc1)NC(=O)[C@H](CCCCN)NC(=O)[C@H](C)NC(=O)[C@H](C)NC(=O)[C@H](CCSC)NC(=O)CNC(=O)[C@H](C)NC(=O)[C@@H](NC(=O)[C@H](Cc1ccccc1)NC(=O)[C@@H]1CCCN1C(=O)[C@H](CC(C)C)NC(=O)[C@@H](N)Cc1ccccc1)[C@@H](C)CC)[C@@H](C)CC)C(=O)N[C@@H](CO)C(=O)N[C@@H](CCCCN)C(=O)N[C@@H](CCCCN)C(N)=O` [FLPFIAGMAAKFLPKIFCAISKK], the minimum inhibitory concentration (MIC) in experiment [13] turned out to be 9.83 µM (≈ 25 µg/mL); in [5] it was 9.83 µM (≈ 25 µg/mL); in the experiment with Vibrio cholerae, 9.83 µM (≈ 25 µg/mL); in experiment [14] it was 9.83 µM (≈ 25 µg/mL); in the experiment on Escherichia coli MG1655 it was 7.87 µM (≈ 20 µg/mL); in [15] it was 2.46 µM (≈ 6.25 µg/mL).

`CC[C@H](C)[C@H](NC(=O)[C@H](CCCCN)NC(=O)[C@H](CCCCN)NC(=O)[C@H](CC(C)C)NC(=O)[C@H](Cc1ccccc1)NC(=O)[C@H](CCCN=C(N)N)NC(=O)[C@@H](N)CC(C)C)C(=O)N[C@@H](CC(C)C)C(=O)N[C@@H](CCCCN)C(=O)N[C@@H](Cc1cnc[nH]1)C(=O)N[C@@H](CC(C)C)C(=O)N[C@@H](Cc1ccccc1)C(N)=O` [LRFLKKILKHLF]: the MIC was 6.43 µM (≈ 9.99 µg/mL) in the experiment on Cladosporium herbarum; 6.43 µM (≈ 9.99 µg/mL) in [16]; 1.5 µM (≈ 2.33 µg/mL) in experiment [17]; at least 64.3 µM in the experiment with Alternaria alternata; 12.9 µM (≈ 20 µg/mL) in [18]; 12.9 µM (≈ 20 µg/mL) in experiment [19]. Besides, the minimal inhibitory concentration (MIC) in experiment [20] was 6.43 µM (≈ 9.99 µg/mL); in [21], 6.43 µM (≈ 9.99 µg/mL); in experiment [22], 3.21 µM (≈ 5 µg/mL); in the experiment on Botrytis cinerea it was at least 64.3 µM.

On to `CC(C)C[C@H](NC(=O)[C@H](CCCCN)NC(=O)[C@H](CC(C)C)NC(=O)[C@H](CC(C)C)NC(=O)[C@H](CC(C)C)NC(=O)[C@H](CC(C)C)NC(=O)[C@H](CCCCN)NC(=O)[C@H](CC(C)C)NC(=O)[C@@H](N)CCCCN)C(=O)N[C@@H](CCCCN)C(N)=O` [KLKLLLLKLK], for which the MIC is 1.65 µM (≈ 2 µg/mL) in experiment [23] and 26.5 µM (≈ 32 µg/mL) against Escherichia coli SPE 001.
